Here are results for seven compounds from patent US20220183282A1, “Fatty Acid Derivatives For Improving The Effect Of Agrochemical Actives” (priority 2019, published 2022).

The test system of data set [1] is apple leaf cuticles. As to the kind of experiment: Penetration of lodosulfuron-methyl through isolated apple leaf cuticles in the presence of test substances. In kind it is in vitro ADME. The settings on record: lodosulfuron-methyl 0.1 g/L in spray liquid, no test substance, 10° C./61% rel. air humidity. An excerpt:
(§1) Surfactants can affect the absorption of (active) ingredients through membranes such as skin, films or the plant cuticle. As a “finite-dose” application, it is known for the single administration or application of a solution, cream, gel etc. to a membrane that the absorption of active ingredient can be influenced by some additives such as surfactants even after wetting.
(§2) The principle of the method has been published and described in detail e.g. in WO-A-2005/194844 or WO2017211572 A1). The leaf cuticles were enzymatically isolated in the manner described in the literature from apple leaves of orchard trees in a commercial stone fruit growing facility near Frankfurt am Main in 2017. The stomata-free cuticles were first dried under air and then installed into stainless steel diffusion cells. After application to the original upper side of the leaf and evaporation of the test liquid, i.e. of the spray liquids of the active ingredients with or without the inventive substances or comparative compositions, the diffusion cells were transferred into thermostated blocks and charged with aqueous liquid. The water used to make up the aqueous test liquids was local tap water (of known composition). At regular intervals, aliquot samples were taken and the proportion of active ingredient penetrated was determined by HPLC or alternatively by radio-chemical method where radio-labelled active ingredient was used as tracer to determine the concentration. During the experiment, the temperature in the system (block, diffusion cells, liquids, etc.) and the air humidity above the spray deposit on the cuticle were controlled. […] The analytical determination by means of HPLC (1290 Infinity, Agilent) was effected thereafter with a Kinetex column 30×2, 1 mm, 2.6μ C18 100 A (Phenomenex), taking a 20 μL aliquot as injection volume at the specified times. In each case, the geometric mean values of the penetration for intact membranes at the mean measurement times are given.

Data set [2] has as its system apple leaf cuticles. Kind of data set: Penetration of Flufenacet through isolated apple leaf cuticles in the presence of test substances. The following applies: apple, 0.75 g/L.
Excerpt: as §1, §2

Data set [3] is described as follows: Dynamic surface tension, bubble pressure method (BP2100 tensiometer, Krüss). The class given is physicochemical. The protocol: Dynamic surface tension was determined via the bubble pressure method (BP2100 tensiometer, Krüss). Given a timespan of relevance for the spray application of agrochemicals in aqueous dilution (called the surface age in the bubble pressure method) of 200 milliseconds (ms), the value for dynamic surface tension in [mN/m] correlates with the adhesion on plants that are difficult to wet, such as barley (cereal). A value of 50 mN/m (at 20-21° C.) with respect to water (72.8 mN/m) results in an improvement in the adhesion from “zero adhesion” (0%) to about 50% (Baur P., Pontzen R.; 2007; Basic features of plant surface wettability and deposit formation and the impact of adjuvant; in R. E. Gaskin ed. Proceedings of the 8th International Symposium on Adjuvants for Agrochemicals; Publisher: International Society for Agrochemical Adjuvants (ISAA), Columbus, Ohio, USA).

Data set [4] concerns apple leaf cuticles. As to the kind of experiment: Penetration of Mesosulfuron-methyl through isolated apple leaf cuticles in the presence of test substances. The following applies: Mesosulfuron-methyl 0.1 g/L in spray liquid, no test substance, 10° C./61% rel. air humidity. The class given is in vitro ADME.
Excerpt: as §1, §2

Data set [5] relates to apple leaf cuticles. As to the kind of experiment: Penetration of Mesotrione through isolated apple leaf cuticles in the presence of test substances. The following applies: Mesotrione 0.5 g/L in spray liquid, no test substance.
Excerpt: as §1
The principle of the method has been published and described in detail e.g. in WO-A-2005/194844 or WO2017211572 A1). The leaf cuticles were enzymatically isolated in the manner described in the literature from apple leaves of orchard trees in a commercial stone fruit growing facility near Frankfurt am Main in 2017. The stomata-free cuticles were first dried under air and then installed into stainless steel diffusion cells. After application to the original upper side of the leaf and evaporation of the test liquid, i.e. of the spray liquids of the active ingredients with or without the inventive substances or comparative compositions, the diffusion cells were transferred into thermostated blocks and charged with aqueous liquid. The water used to make up the aqueous test liquids was local tap water (of known composition). At regular intervals, aliquot samples were taken and the proportion of active ingredient penetrated was determined by HPLC or alternatively by radio-chemical method where radio-labelled active ingredient was used as tracer to determine the concentration. During the experiment, the temperature in the system (block, diffusion cells, liquids, etc.) and the air humidity above the spray deposit on the cuticle were controlled. In the experiment, relative air humidity was constant throughout at 56% relative air humidity (air over supersaturated calcium nitrate) at a constant 10° C. or 25° C. The analytical determination by means of HPLC (1290 Infinity, Agilent) was effected thereafter with a Kinetex column 30×2, 1 mm, 2.6μ C18 100 A (Phenomenex), taking a 20 μL aliquot as injection volume at the specified times. […]

Data set [6] has as its system apple leaf cuticles. Kind of data set: Penetration of Imidacloprid through isolated apple leaf cuticles in the presence of test substances. The settings on record: apple, 0.5 g/L.
Excerpt: as §1
(§3) The principle of the method has been published and described in detail e.g. in WO-A-2005/194844 or WO2017211572 A1). The leaf cuticles were enzymatically isolated in the manner described in the literature from apple leaves of orchard trees in a commercial stone fruit growing facility near Frankfurt am Main in 2017. The stomata-free cuticles were first dried under air and then installed into stainless steel diffusion cells. After application to the original upper side of the leaf and evaporation of the test liquid, i.e. of the spray liquids of the active ingredients with or without the inventive substances or comparative compositions, the diffusion cells were transferred into thermostated blocks and charged with aqueous liquid. The water used to make up the aqueous test liquids was local tap water (of known composition). At regular intervals, aliquot samples were taken and the proportion of active ingredient penetrated was determined by HPLC or alternatively by radio-chemical method where radio-labelled active ingredient was used as tracer to determine the concentration. During the experiment, the temperature in the system (block, diffusion cells, liquids, etc.) and the air humidity above the spray deposit on the cuticle were controlled. In the experiment, relative air humidity was constant throughout at 56% relative air humidity (air over supersaturated calcium nitrate) at a constant 10° C. or 25° C. The analytical determination by means of HPLC (1290 Infinity, Agilent) was effected thereafter with a Kinetex column 30×2, 1 mm, 2.6μ C18 100 A (Phenomenex), taking a 20 μL aliquot as injection volume at the specified times. In each case, the geometric mean values of the penetration for intact membranes at the mean measurement times are given.

Data set [7] concerns apple leaf cuticles. Kind of data set: Penetration of MCPA through isolated apple leaf cuticles in the presence of test substances. The following applies: MCPA 1.5 g/L in spray liquid, no test substance, 25° C./56% rel. air humidity.
Excerpt: as §1, §3

Take `COC(=O)c1ccc(I)cc1S(=O)(=O)NC(=O)Nc1nc(C)nc(OC)n1` [lodosulfuron-methyl, reference compound]: the “Mean penetration for lodosulfuron-methyl after time” value in the data set on apple leaf cuticles [1] (1 day) and with apple leaf cuticles [1] (2 days) was 0% throughout.

For `CC(C)N(C(=O)COc1nnc(C(F)(F)F)s1)c1ccc(F)cc1` [Flufenacet, reference compound], the entries for the “Mean penetration for Flufenacet after time” value in the data set with apple leaf cuticles [2] (1 day) and in the data set on apple leaf cuticles [2] (2 days) were 0.4% and 0.7%, respectively.

Consider “C8/C10 fatty acid 6 EO ester methyl ether [A2]”, for which the “Dynamic Surface tension” value is reported as 54.5 mN/m in data set [3] (0.3 g/L, 20 ms); 54.5 mN/m in data set [3] (0.3 g/L, 50 ms); 54.5 mN/m in data set [3] (0.3 g/L, 100 ms); 54.5 mN/m in data set [3] (0.3 g/L, 200 ms); 42.0 mN/m in data set [3] (1 g/L, 20 ms); 42.0 mN/m in data set [3] (1 g/L, 50 ms). In addition, the “Dynamic Surface tension” value turned out to be 42.0 mN/m in data set [3] (1 g/L, 100 ms); 42.0 mN/m in data set [3] (1 g/L, 200 ms); 31.5 mN/m in data set [3] (3 g/L, 20 ms); 31.5 mN/m in data set [3] (3 g/L, 50 ms); 31.5 mN/m in data set [3] (3 g/L, 100 ms); 31.5 mN/m in data set [3] (3 g/L, 200 ms). In addition, the “Dynamic Surface tension” value turned out to be 28.5 mN/m in data set [3] (10 g/L, 20 ms); 28.5 mN/m in data set [3] (10 g/L, 50 ms); 28.5 mN/m in data set [3] (10 g/L, 100 ms); 28.5 mN/m in data set [3] (10 g/L, 200 ms).

With `COC(=O)c1ccc(CNS(C)(=O)=O)cc1S(=O)(=O)NC(=O)Nc1nc(OC)cc(OC)n1` [Mesosulfuron-methyl, reference compound], the “Mean penetration for Mesosulfuron-methyl after time” value in the data set with apple leaf cuticles [4] (1 day) and in the data set with apple leaf cuticles [4] (2 days) was 0% in each case.

On to `CS(=O)(=O)c1ccc(C(=O)C2C(=O)CCCC2=O)c([N+](=O)[O-])c1` [Mesotrione], for which the “Mean penetration for Mesotrione after time” value in the data set with apple leaf cuticles [5] (1 day) and with apple leaf cuticles [5] (2 days) was 0% each time.

Consider `O=[N+]([O-])NC1=NCCN1Cc1ccc(Cl)nc1` [Imidacloprid, reference compound], for which the “Mean penetration for Imidacloprid after time” value in the data set on apple leaf cuticles [6] (1 day) was 0.5%; with apple leaf cuticles [6] (4 days), 1.3%.

In the case of `Cc1cc(Cl)ccc1OCC(=O)O` [MCPA, reference compound], the “Mean penetration for MCPA after time” value came to 9.0% in the data set with apple leaf cuticles [7] (0.5 day) and 17.1% with apple leaf cuticles [7] (1 day).
